According to patent publication US12441730B2, “PRMT5 inhibitors” (Merck Sharp & Dohme LLC, priority 2019, dated 2025):
Read-outs that look alike come from different tables or passages of the source.

How the values were obtained:
[1] = biological target: T1, Full-length (FL)-PRMT5-MEP50 enzyme complex (Homo sapiens, UniProt O14744); test: PRMT5-MEP50 Enzyme Methylation Assay (Version A); type: biochemical
T1 construct: Full-length (FL)-PRMT5-MEP50 enzyme complex (recombinant proteins from baculovirus-transfected Sf21 cells: FL-PRMT5; MW=73837 kDa and FL-MEP50; MW=38614); made in house; host or cells: baculovirus-transfected Sf21 cells
How it was run: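 Compound was pre-incubated with enzyme for 60 min, then reacted 150 min at 37° C. at final 1.0 nM PRMT5-MEP50, 15 μM SAM and 75 nM biotinylated H4R3(Me1) peptide, in 50 mM Bicine pH 8.0 with 1% DMSO. SAMDI mass-spectrometric readout of Me1→Me2 conversion. EC50 from 4- or 7-parameter regression.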

[2] = tested on: symmetric dimethylation of arginine (SDMA) of PRMT5 substrates in MCF-7 cells; test: PRMT5 Cell Target Engagement (TE) Assay; type: cell-based; settings: Homo sapiens, MCF7, 72 h, 3 days treatment, SDMA high content imaging
How it was run: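 Readout is single-cell nuclear symmetric-dimethylarginine immunofluorescence (Alexa488), normalized to DMSO-treated cells. Compounds were applied to MCF-7 cells for 3 days at 37 °C, top concentration 10000 nM in 1:3 steps over ten points; curves fitted with 4-parameter robust fit.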

[3] = second value of 7 parameter biphasic fit, read-out: Enzyme Methylation Assay Version A (EC50 2)
[4] = single EC50 = 4 parameter single site sigmoidal fit, EC50 1 = first value of 7 parameter biphasic fit, read-out: Enzyme Methylation Assay Version A (EC50 or EC50 1)

T1 sequence (O14744 whole entry): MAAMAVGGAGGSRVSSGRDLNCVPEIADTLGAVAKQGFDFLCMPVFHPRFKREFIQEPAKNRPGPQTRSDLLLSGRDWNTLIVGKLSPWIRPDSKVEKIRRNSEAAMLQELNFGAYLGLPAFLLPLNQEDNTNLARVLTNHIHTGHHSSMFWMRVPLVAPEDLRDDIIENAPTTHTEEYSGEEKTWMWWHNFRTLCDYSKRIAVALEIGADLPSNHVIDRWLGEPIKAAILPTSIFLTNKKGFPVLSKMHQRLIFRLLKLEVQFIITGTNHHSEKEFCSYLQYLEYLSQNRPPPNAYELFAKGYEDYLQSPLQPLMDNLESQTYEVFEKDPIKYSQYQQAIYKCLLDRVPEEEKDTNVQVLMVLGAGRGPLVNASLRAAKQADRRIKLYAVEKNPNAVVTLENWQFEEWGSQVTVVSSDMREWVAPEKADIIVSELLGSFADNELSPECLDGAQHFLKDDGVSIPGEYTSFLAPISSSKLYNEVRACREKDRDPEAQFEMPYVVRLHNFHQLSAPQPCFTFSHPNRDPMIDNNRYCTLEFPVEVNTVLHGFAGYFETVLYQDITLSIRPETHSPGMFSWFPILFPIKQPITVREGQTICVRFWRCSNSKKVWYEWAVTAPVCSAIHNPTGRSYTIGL
T1 sequence (Q9BQA1 whole entry partner): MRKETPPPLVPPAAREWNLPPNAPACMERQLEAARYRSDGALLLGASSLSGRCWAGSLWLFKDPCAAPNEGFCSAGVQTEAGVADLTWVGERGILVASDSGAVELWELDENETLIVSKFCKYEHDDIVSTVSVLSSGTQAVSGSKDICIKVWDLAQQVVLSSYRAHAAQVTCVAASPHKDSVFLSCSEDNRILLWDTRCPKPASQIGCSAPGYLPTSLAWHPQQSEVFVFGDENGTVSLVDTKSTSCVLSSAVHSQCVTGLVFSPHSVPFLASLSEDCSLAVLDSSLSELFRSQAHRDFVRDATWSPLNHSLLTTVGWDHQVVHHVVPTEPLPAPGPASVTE

EC50 [1, 3] [nM]	EC50 [1, 4] [nM]	EC50 [2] [nM]	SMILES
692	0.763	100	O=C(c1cn2cc(F)cc(Br)c2n1)N1CC[C@]2(Cc3ccccc3CN2)[C@H](O)C1 [Example 208, (8-bromo-6-fluoroimidazo[1,2-a]pyridin-2-yl)[(3R,3′R)-3′-hydroxy-1,4-dihydro-1′H,2H-spiro[isoquinoline-3,4′-piperidin]-1′-yl]methanone]
3890	3.74	256	O=C(c1cn2cccc(Br)c2n1)N1CC[C@]2(Cc3ccccc3CN2)[C@H](O)C1 [Example 209, (8-bromoimidazo[1,2-a]pyridin-2-yl)[(3R,3′R)-3′-hydroxy-1,4-dihydro-1′H,2H-spiro[isoquinoline-3,4′-piperidin]-1′-yl]methanone]
55	0.207	12.4	O=C(c1cn2cc(Cl)cc(Br)c2n1)N1CC[C@]2(Cc3ccccc3CN2)[C@H](O)C1 [Example 210, (8-bromo-6-chloroimidazo[1,2-a]pyridin-2-yl)[(3R,3′R)-3′-hydroxy-1,4-dihydro-1′H,2H-spiro[isoquinoline-3,4′-piperidin]-1′-yl]methanone]
71.6	0.191	7.99	O=C(c1cn2cc(C(F)(F)F)cc(Cl)c2n1)N1CC[C@]2(Cc3ccccc3CN2)[C@H](O)C1 [Example 211, [8-chloro-6-(trifluoromethyl)imidazo[1,2-a]pyridin-2-yl][(3R,3′R)-3′-hydroxy-1,4-dihydro-1′H,2H-spiro[isoquinoline-3,4′-piperidin]-1′-yl]methanone]
21400	902	3120	O=C(c1cn(-c2ccc(F)cc2)cn1)N1CC[C@]2(Cc3ccccc3CN2)[C@H](O)C1 [Example 212, [1-(4-fluorophenyl)-1H-imidazol-4-yl][(3R,3′R)-3′-hydroxy-1,4-dihydro-1′H,2H-spiro[isoquinoline-3,4′-piperidin]-1′-yl]methanone]
343	4.33	209	COc1ccc(C)cc1-n1cnc(C(=O)N2CC[C@]3(Cc4ccccc4CN3)[C@H](O)C2)c1 [Example 213, [(3R,3′R)-3′-hydroxy-1,4-dihydro-1′H,2H-spiro[isoquinoline-3,4′-piperidin]-1′-yl][1-(2-methoxy-5-methylphenyl)-1H-imidazol-4-yl]methanone]
47.9	1.12	9	O=C(c1cn2cc(Cl)cc(Cl)c2n1)N1CC[C@]2(Cc3ccccc3CN2)[C@H](O)C1 [Example 214, (6,8-dichloroimidazo[1,2-a]pyridin-2-yl)[(3R,3′R)-3′-hydroxy-1,4-dihydro-1′H,2H-spiro[isoquinoline-3,4′-piperidin]-1′-yl]methanone]
	56.7	122	N#Cc1cc(Cl)c2nc(C(=O)N3CC[C@]4(Cc5ccccc5CN4)[C@H](O)C3)cn2c1 [Example 215, 8-chloro-2-{[(3R,3′R)-3′-hydroxy-1,4-dihydro-1′H,2H-spiro[isoquinoline-3,4′-piperidin]-1′-yl]carbonyl}imidazo[1,2-a]pyridine-6-carbonitrile]
2540	26.3	711	O=C(c1cn2ccc(Cl)c(I)c2n1)N1CC[C@]2(Cc3ccccc3CN2)[C@H](O)C1 [Example 216, (7-chloro-8-iodoimidazo[1,2-a]pyridin-2-yl)[(3R,3′R)-3′-hydroxy-1,4-dihydro-1′H,2H-spiro[isoquinoline-3,4′-piperidin]-1′-yl]methanone]
40.3	0.73	11.3	O=C(c1cn2cc(Br)cc(F)c2n1)N1CC[C@]2(Cc3ccccc3CN2)[C@H](O)C1 [Example 217, (6-bromo-8-fluoroimidazo[1,2-a]pyridin-2-yl)[(3R,3′R)-3′-hydroxy-1,4-dihydro-1′H,2H-spiro[isoquinoline-3,4′-piperidin]-1′-yl]methanone]
